Laboratory results taken from publication PMC8911181, “A Novel CDK4/6 and PARP Dual Inhibitor ZC-22 Effectively Suppresses Tumor Growth and Improves the Response to Cisplatin Treatment in Breast and Ovarian Cancer” (International Journal of Molecular Sciences, 2022).

Columns and labels:
[1] = system: SKOV3 cells; assay: Cell viability assay (CCK-8), IC50; type: cell-based; details: Homo sapiens, SK-OV-3, 6 days, medium replenished every 2 days
Description: (§1) Human breast cancer cell lines MDA-MB-231 and SUM-159, and human ovarian cancer cell lines OVCAR5 and SKOV3 were obtained from the American Type Culture Collection (ATCC). MDA-MB-231 cells were cultured in L-15 medium with 10% fetal bovine serum (FBS), incubated at 37 °C in a humidified incubator without additional CO2. SUM-159 cells were maintained in Dulbecco’s modified Eagle’s medium (DMEM) containing 10% FBS, and OVCAR5 and SKOV3 cells were incubated in Roswell Park Memorial Institute (RPMI)-1640 medium with 10% FBS and cultured at 37 °C in a humidified incubator containing 5% CO2.
(§2) Cell viability assay was performed as described before. Briefly, 2500/well of breast or ovarian cancer cells were seeded into a 96-well plate; grown overnight; treated with indicated concentration of Olaparib, LY2835219, ZC22, LP-1, GC-24, or cisplatin alone or together for an indicated amount of time; and then incubated with Cell Counting kit-8 (CCK-8) substrate (Dojindo, Kumamoto, Kyushu Island, Japan) for 1–2 h at 37 °C. Cell viability was calculated by the absorbance at 450 nm measured by the GloMax Explorer (Promega, Madison, WI, USA). Cells without treatment were set as 100%, and medium control (no cells) was set as 0%.
(§3) Figure 1 Synthesis strategy and activity assay of the novel compounds targeting both PARP and CDK4/6. (A) Synthesis strategy of the three novel compounds GC-24, LP-1, and ZC-22. (B) IC50 of GC-24, LP-1, and ZC-22 in breast and ovarian cancer cells. Cells were treated with increasing concentrations of GC-24, LP 1, or ZC-22 for 6 days with replenishment of medium every 2 days. Cell proliferation was analyzed by CCK-8 assays. (C) The reagents and conditions used for the chemical synthesis of ZC-22 in this study: (a) Pd(AcO)2, BINAP, CS2CO3, 1,4-Dioxane, 100 °C, 12 h; (b) CF3COOH, DCM, Room temperature, 6 h; (c) HOBt, EDCI, DIPEA, DMF, Room temperature, 12 h. TEXT PRINTED IN THE PICTURE: (B) LP-1: MDA-MB-231 IC50 (μM): >50; SUM-159 IC50 (μM): 7.780; OVCAR5 IC50 (μM): 10.11; SKOV3 IC50 (μM): 10.16 | (B) GC-24: MDA-MB-231 IC50 (μM): 33.77; SUM-159 IC50 (μM): 17.77; OVCAR5 IC50 (μM): 26.08; SKOV3 IC50 (μM): >50 | (B) ZC-22: MDA-MB-231 IC50 (μM): 3.608; SUM-159 IC50 (μM): 0.435; OVCAR5 IC50 (μM): 0.758; SKOV3 IC50 (μM): 0.542
(§4) Figure 2 ZC-22 suppresses proliferation of breast and ovarian cancer cells. (A) IC50 of ZC-22, Olaparib, and LY2835219 (Abemaciclib) in breast and ovarian cancer cells. Cells were treated with increasing concentrations of ZC-22, Olaparib, or LY2835219 for 6 days with replenishment of medium every 2 days. Cell proliferation was analyzed by CCK-8 assays. (B) Cell proliferation assay of breast and ovarian cancer cells with indicated treatment. MDA-MB-231 cells were treated with 2 μM Olaparib (OLA) or LY2835219 (LY-2) alone or together (OLA + LY-2) or with ZC-22 alone for 48 or 72 h. SUM-159, OVCAR5, and SKOV3 cells were treated with 0.5 μM OLA or LY-2 alone or together or with ZC-22 alone. Cell proliferation assay was analyzed by CCK-8 assays. Values are means ± SD, n = 3. ns, not significant, * p < 0.05, ** p < 0.01 and *** p < 0.001 for comparisons with the DMSO-treated group using an unpaired t-test. TEXT PRINTED IN THE PICTURE: (A) ZC-22: MDA-MB-231 IC50 (μM): 3.608; SUM-159 IC50 (μM): 0.435; OVCAR5 IC50 (μM): 0.758; SKOV3 IC50 (μM): 0.542 | (A) LY2835219: MDA-MB-231 IC50 (μM): 11.28; SUM-159 IC50 (μM): 0.664; OVCAR5 IC50 (μM): 9.791; SKOV3 IC50 (μM): 1.158 | (A) Olaparib: MDA-MB-231 IC50 (μM): 32.13; SUM-159 IC50 (μM): 19.29; OVCAR5 IC50 (μM): 30.51; SKOV3 IC50 (μM): >50

[2] = system: SUM-159 cells; assay: Cell viability assay (CCK-8), IC50; type: cell-based; details: Homo sapiens, SUM159, 6 days, medium replenished every 2 days
Description: as §1, §2, §3, §4

[3] = system: OVCAR5 cells; assay: Cell viability assay (CCK-8), IC50; type: cell-based; details: Homo sapiens, OVCAR-5, 6 days, medium replenished every 2 days
Description: as §1, §2, §3, §4

[4] = system: MDA-MB-231 cells; assay: Cell viability assay (CCK-8), IC50; type: cell-based; details: Homo sapiens, 6 days, medium replenished every 2 days
Description: as §1, §2, §3, §4

[5] = system: MDA-MB-231 xenograft tumors; assay: Breast cancer xenograft mouse model, tumor growth; type: in vivo, mice; details: 1.5 mg/kg cisplatin or 50 mg/kg ZC-22 ip alone or together
Description: Six-week-old female athymic nude mice (Homozygous) were purchase from Vital River Laboratories (Beijing, China) and maintained under the guidelines for laboratory animals of Nankai university (NKU). Mice were injected subcutaneously with 2 × 10^6 MDA-MB-231 or 8 × 10^6 OVCAR5 cells. When tumors were 50–100 mm^3 in size, the mice were randomly grouped and treated intraperitoneal (i.p.) with 50 mg/kg of Olaparib, 50 mg/kg of LY2835219, 50 mg/kg of ZC-22, or 1.5 mg/kg of cisplatin alone or in combinations or with the vehicle (PBS containing 10% DMSO and 10% 2-hydroxy-propyl-β-cyclodextrin) every 2 days. Tumor volume was measured every 3–4 days, which was calculated as Length × Width^2/2. At the end of the study, tumor and major organ tissues were harvested by surgery. For histopathological analysis, tissue samples were washed with PBS, fixed in 4% paraformaldehyde (PFA), paraffin-embedded, and sectioned into 7 μm thickness. For Western blot analysis, the tissue samples were dissociated by a tissue-tearor in RIPA buffer containing 1×protease and phosphatase inhibitors.
Figure 4 ZC-22 suppresses growth of breast cancer xenografts. Female NOD-SCID mice were injected subcutaneously with 2 × 10^6 of MDA-MB-231 cells and treated ip daily with 50 mg/kg of Olaparib (OLA) or LY2835219 (LY-2) alone or together (OLA + LY-2) or with ZC-22 alone starting on day 10 after injection of cells when tumors were 50–80 mm^3 in size. Tumor volumes were measured every 2–3 days. […] (B,C) Pictures of (B) and quantification of the size of (C) the MDA-MB-231 xenograft tumors at the end points. […] (E) Quantification of Ki67 (Left) and γH2A.X (Right)-positive cells in immunohistochemical staining of the xenograft tumor tissues. […]
Figure 6 ZC-22 sensitizes breast cancer cells to cisplatin treatment in vivo. […] Tumor volumes were measured every 2–3 days. […] (B,C) Pictures (B) and quantification of the size (C) of the MDA-MB-231 xenograft tumors at the end points. […] (E) Quantification of Ki67 (left) and γH2A.X (right)-positive cells in immunohistochemical staining of the xenograft tumor tissues. […]

IC50 [1] | IC50 [3] | IC50 [4] | SMILES | IC50 [2] | growth of the xenograft tumors [5]
> 50 µM | 30.5 µM | 32.1 µM | O=C(c1cc(Cc2n[nH]c(=O)c3ccccc23)ccc1F)N1CCN(C(=O)C2CC2)CC1 [Olaparib, reference compound] | 19.3 µM | 
> 50 µM | 26.1 µM | 33.8 µM | CC(=O)c1c(C)c2cnc(Nc3ccc(N4CCN(C(=O)c5cc(Cc6n[nH]c(=O)c7ccccc67)ccc5F)CC4)cn3)nc2n(C2CCCC2)c1=O [GC-24] | 17.8 µM | 
10.2 µM | 10.1 µM | > 50 µM | CN(C)C(=O)c1cc2cnc(Nc3ccc(N4CCN(C(=O)c5cc(Cc6n[nH]c(=O)c7ccccc67)ccc5F)CC4)cn3)nc2n1C1CCCC1 [LP-1] | 7.78 µM | 
 |  |  | N.N.[Cl][Pt][Cl] [cisplatin] |  | effectively inhibit growth of the xenograft tumors
